In PubChem BioAssay AID588567 (Sanford-Burnham Center for Chemical Genomics, 2011) one finds IC50 data, which are given here for 7 compounds.

Each structure is given as a SMILES string. Activity calls are given as the source filed them.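 How the source made its calls: active means mean IC50 at or below 20 µM; inactive means the rest.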

The test system of this test is CHO-CHOP cells viability, ATPlite luminescence, 24 h. Nature of the test: cytotoxicity in CHO-CHOP reporter cells, SAR follow-up, cytotoxicity control for UPR adaptive arm activator project, cell-based, 24 h exposure, ATPlite luminescence (AID 588567).
On to `O=C(Nc1ccc(Cl)cc1)c1cc(-c2ccncc2)nc2ccccc12`, for which the IC50 was 63.7 µM (inactive). Under `O=C(Nc1ccc(Br)c(C(F)(F)F)c1)c1cc(-c2ccncc2)nc2ccccc12` stands 50.1 µM (inactive); under `Cc1ccc(NC(=O)c2cc(-c3ccncc3)nc3ccccc23)cc1`, > 80 µM (inactive). To `O=C(Nc1ccc(C(F)(F)F)cc1)c1cc(-c2ccncc2)nc2ccccc12` belongs 61.3 µM (inactive); to `Cc1nc(Nc2nc(-c3ccccc3)cc(=O)[nH]2)nc2ccccc12`, 30.2 µM (inactive); to `Cc1cc(Br)cc(NC(=O)c2cc(-c3ccncc3)nc3ccccc23)c1`, 64.8 µM (inactive).

With `O=C(Nc1ccc(F)cc1)c1cc(-c2ccncc2)nc2ccccc12`, the IC50 was > 80 µM (inactive).
